Results on eight molecules are retold here after PubChem BioAssay (NCI).

The structures appear in SMILES notation.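 96-well plates; 48 h exposure; 5 concentrations. Endpoints by linear interpolation between flanking doses. Not reached: highest tested concentration assigned. TGI: concentration producing complete growth inhibition.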 Some results are limits rather than exact numbers.

Some test systems named below: A549 NSCLC; DU-145 prostate; HOP-62 NSCLC; IGROV1 ovarian; M14 melanoma; MCF7 breast; MDA-MB-435; MDA-N; NCI/ADR-RES ovarian; OVCAR-4 ovarian; OVCAR-5 ovarian; OVCAR-8 ovarian; PC-3 prostate; RPMI-8226 leukemia; SK-MEL-2 melanoma; SK-MEL-28 melanoma; SNB-75 CNS; U251 CNS; SR leukemia; HS 578T breast.
What all share (assay): NCI tumour cell line growth inhibition, 48 h

For `O=c1c2c(c1=O)C1(SCCCS1)c1cc(Cl)ccc1O2`, the TGI with A549 NSCLC, in the test with DU-145 prostate, with HOP-62 NSCLC, in the test on IGROV1 ovarian, in the test on M14 melanoma and in the test with MCF7 breast was more than 100 µM in each case. For the same molecule, the TGI in the test with MDA-MB-435, in the test on MDA-N, in the test with NCI/ADR-RES ovarian, in the test with OVCAR-4 ovarian, with OVCAR-5 ovarian and with OVCAR-8 ovarian was more than 100 µM each time. Besides, the TGI with PC-3 prostate, with RPMI-8226 leukemia, with SK-MEL-2 melanoma, in the test with SK-MEL-28 melanoma, in the test on SNB-75 CNS and with U251 CNS was more than 100 µM throughout.
As for `C/C(=N\Nc1ccccc1Br)c1cccc(/C(C)=N/Nc2ccccc2Br)n1`, the TGI with A549 NSCLC, in the test with DU-145 prostate, in the test with HOP-62 NSCLC, with IGROV1 ovarian, in the test with M14 melanoma and in the test on MCF7 breast was more than 100 µM each time. Besides, the TGI in the test on MDA-MB-435, with MDA-N, in the test with NCI/ADR-RES ovarian, in the test on OVCAR-4 ovarian, in the test with OVCAR-5 ovarian and in the test on OVCAR-8 ovarian was more than 100 µM throughout. Also, the TGI with PC-3 prostate was more than 100 µM; in the test with RPMI-8226 leukemia, more than 100 µM; with SK-MEL-2 melanoma, more than 100 µM; with SK-MEL-28 melanoma it was more than 100 µM; in the test with SNB-75 CNS it was 36.8 µM; with SR leukemia, more than 100 µM. The same molecule came in with a TGI in the test with U251 CNS of more than 100 µM.
On to `CC1(C)C2CCC(N)(C2)C1N` (stereo not given), for which the TGI in the test with A549 NSCLC, with DU-145 prostate, in the test with HOP-62 NSCLC, in the test with IGROV1 ovarian, in the test on M14 melanoma and in the test with MCF7 breast was more than 100 µM throughout. In addition, the TGI in the test on MDA-MB-435, in the test on MDA-N, with NCI/ADR-RES ovarian, in the test on OVCAR-4 ovarian, in the test on OVCAR-5 ovarian and in the test on OVCAR-8 ovarian was more than 100 µM throughout. In addition, the TGI in the test with PC-3 prostate, with RPMI-8226 leukemia, with SK-MEL-2 melanoma, in the test with SK-MEL-28 melanoma, in the test with SNB-75 CNS and in the test with SR leukemia was more than 100 µM each time. Further, in the test with U251 CNS, the TGI is more than 100 µM.
For `CCN(CCCN(CC)C(=O)Nc1ccccc1)C(=O)Nc1ccccc1`, the TGI in the test with A549 NSCLC, in the test with DU-145 prostate, in the test on HOP-62 NSCLC, in the test with IGROV1 ovarian, with M14 melanoma and in the test on MCF7 breast was more than 100 µM each time. In addition, the TGI with MDA-MB-435, in the test with MDA-N, with NCI/ADR-RES ovarian, in the test with OVCAR-4 ovarian, in the test on OVCAR-5 ovarian and in the test on OVCAR-8 ovarian was more than 100 µM in each case. Also, the TGI with PC-3 prostate, in the test on RPMI-8226 leukemia, with SK-MEL-2 melanoma, with SK-MEL-28 melanoma, in the test on SNB-75 CNS and with SR leukemia was more than 100 µM in each case. Further, in the test with U251 CNS, the TGI is more than 100 µM.
On to `CCOC(=O)NC(C(=O)OCC)C(F)(F)F` (stereo not given), for which the TGI in the test with A549 NSCLC, in the test on HOP-62 NSCLC, in the test with HS 578T breast, in the test on IGROV1 ovarian, with M14 melanoma and in the test on MCF7 breast was more than 100 µM each time. Further, the TGI in the test with MDA-N, with NCI/ADR-RES ovarian, in the test on OVCAR-5 ovarian, in the test on OVCAR-8 ovarian, in the test with PC-3 prostate and in the test on RPMI-8226 leukemia was more than 100 µM each time. The TGI in the test with SK-MEL-2 melanoma, in the test on SK-MEL-28 melanoma, in the test with SNB-75 CNS, in the test with SR leukemia and in the test with U251 CNS was more than 100 µM in each case.
`N#CCC(=O)c1cc(OCc2cc(OCc3ccc(Br)cc3)cc(OCc3ccc(Br)cc3)c2)cc(OCc2cc(OCc3ccc(Br)cc3)cc(OCc3ccc(Br)cc3)c2)c1`: the TGI with A549 NSCLC, in the test with DU-145 prostate, in the test on HOP-62 NSCLC, in the test with M14 melanoma, in the test on MCF7 breast and in the test on MDA-MB-435 was more than 100 µM each time. For the same molecule, the TGI with MDA-N, in the test with NCI/ADR-RES ovarian, in the test on OVCAR-4 ovarian, with OVCAR-5 ovarian, in the test on PC-3 prostate and in the test with RPMI-8226 leukemia was more than 100 µM each time. In addition, the TGI in the test on SK-MEL-2 melanoma, in the test with SK-MEL-28 melanoma, in the test with SNB-75 CNS and in the test with U251 CNS was more than 100 µM throughout.
`O=c1[nH]c(=O)n(COCCO)c2ccc(Br)cc12`: the TGI in the test on A549 NSCLC, in the test with DU-145 prostate, in the test on IGROV1 ovarian, with M14 melanoma, with MCF7 breast and in the test on MDA-MB-435 was more than 100 µM each time. Also, the TGI with MDA-N, with NCI/ADR-RES ovarian, in the test with OVCAR-4 ovarian, in the test with OVCAR-5 ovarian, in the test on OVCAR-8 ovarian and with SK-MEL-2 melanoma was more than 100 µM throughout. Further, the TGI in the test on SK-MEL-28 melanoma, with SNB-75 CNS, in the test on SR leukemia and in the test with U251 CNS was more than 100 µM in each case.
As for `NC1=NNC2(C(=O)N1)c1ccccc1-c1ccccc12`, the TGI in the test on A549 NSCLC, in the test with HOP-62 NSCLC, with IGROV1 ovarian, in the test with M14 melanoma, with MCF7 breast and in the test with MDA-N was more than 10 µM in each case. Moreover, the TGI in the test with NCI/ADR-RES ovarian, with OVCAR-5 ovarian, in the test on OVCAR-8 ovarian, with PC-3 prostate, with RPMI-8226 leukemia and in the test on SK-MEL-2 melanoma was more than 10 µM in each case. Moreover, the TGI in the test with SK-MEL-28 melanoma, in the test on SNB-75 CNS, in the test with SR leukemia and with U251 CNS was more than 10 µM throughout.
